# Earlier results as cited in patent publication US20130158028A1, “USE OF STIMULATORS AND ACTIVATORS OF SOLUBLE GUANYLATE CYCLASE FOR TREATING SICKLE-CELL ANEMIA AND CONSERVING BLOOD SUBSTITUTES” (BAYER INTELLECTUAL PROPERTY GMBH, priority 2010, published 2013).
# Settings: repeated reports
structure (smiles),measurement,value
"CN1CC(=O)N2[C@H](c3ccc4c(c3)OCO4)c3[nH]c4ccccc4c3C[C@@H]2C1=O [tadalafil, (6R,12aR)-2,3,6,7,12,12a-hexahydro-2-methyl-6-(3,4-methylenedioxyphenyl)pyrazino (1′,2′:1,6) pyrido(3,4-b)indole-1,4-dione]",incidence of back pain,increased incidence of back pain
